# No end group written: not given here.
# Legend:
# [1] = Fluorescence ANTS/DPX vesicle leakage assay in POPE/POPG/TOCL (72:23:5); conditions: POPE/POPG/TOCL (72:23:5) 100 nm vesicles, P/L ≈ 1:30, mixtures 1:1, 10 mM HEPES pH 7.5, 155 mM NaCl, 30 °C, 600 s, % of Triton-X-100 leakage, mean of n = 3
# Description: It could be argued that POPC/POPG (3:1) is not the most appropriate model system to describe a bacterial membrane, which rarely contains PC lipids. We therefore also performed leakage in another lipid system, POPE/POPG/TOCL (72:23:5), which is a good model of E. coli membranes[45],[69],[70]. […] For all of the other mutants discussed below, leakage was also studied both in POPC/POPG as well as POPE/POPG/TOCL, but since the results (synergy or no synergy) were in all cases the same, the latter data will not be presented in the text. All leakage data in POPE/POPG/TOCL (72:23:5) for charge mutants are summarized in Supplementary Table S4.
# (§1) Leakage of small unilamellar vesicles induced by the peptides was studied using a standard fluorescence assay.
# (§2) The appropriate lipids for each experiment were dissolved in CHCl3, together with 0.02 mol-% Rhodamine-PE (Rh-PE). […] This stock suspension was subjected to 10 freeze-thaw cycles and then frozen. Appropriate aliquots of the stock lipid suspension were unfrozen each day and extruded (41 times) through polycarbonate membranes with 100 nm pore size, and stored at room temperature overnight. The fluorophore and quencher outside the vesicles were removed by size exclusion chromatography using spin-columns (Pierce centrifuge column, 2 ml, Life Technologies GmbH, Darmstadt, Germany) filled with Sephacryl 100-HR (2 min, 1500 × g). For elution, a 10 mM HEPES buffer (pH 7.5) was used, containing 155 mM NaCl to balance the osmolarity. After extrusion and removal of the external dye and quencher, the lipid concentration usually decreases. Therefore, before each set of measurements a rhodamine spectrum was recorded to determine the actual concentration of lipids, which was referenced to a spectrum taken of vesicles made by sonification without any subsequent treatment.
# (§3) Fluorescence experiments were performed on a FluoroMax2 spectrofluorimeter (HORIBA Jobin Yvon, Unterhaching, Germany) equipped with a thermostated sample holder and magnetic stirrer, using an excitation wavelength of 355 nm, an emission wavelength of 508 nm, and slit widths of 5 nm. The peptide solutions were placed in elution buffer in a 1 cm standard cuvette at 30 °C. 100 s after the start of the measurement lipid vesicles were added, and the intensity of the fluorescence at 508 nm was recorded. The leakage was measured during 600 s after addition of vesicles, and the measurement was terminated after addition of Triton-X-100 (0.25% v/v), which dissolved the vesicles, and yielded 100% leakage. To determine the background signal of the vesicles themselves, several blanks were recorded per measurement set. From the leakage values of the peptides alone and of the mixture of two peptides a synergy factor SF was calculated:3 SF=L(A+B)/[L(A)+L(B)] Here, L(A) is the leakage found with peptide A alone, L(B) is the leakage found with peptide B alone, and L(A + B) is the leakage found with the mixture of peptides A and B. In all cases the P/L was the same for both peptides, alone and in the mixture, so that in the mixture the total P/L was twice that of the individual peptide measurements. […] Measurements were repeated three times and average values and standard deviations calculated for the leakage and the synergy factors. An average SF ≥ 2 was taken to indicate synergy.
# [2] = Fluorescence ANTS/DPX vesicle leakage assay in POPC/POPG (3:1); conditions: for Leakage, mean value: ANTS/DPX, POPC/POPG (3:1) 100 nm vesicles, P/L about 1:160 per peptide, mixtures 1:1, 10 mM HEPES pH 7.5, 155 mM NaCl, 30 °C, 600 s, % of Triton-X-100 leakage, fluorescence, mean of n = 3; for Leakage synergy in combination with MAG2-E19K / Leakage synergy in combination with MAG2-E19K-amide: POPC/POPG (3:1) vesicles, result in words
# Protocol: The synergy was also investigated by a fluorescence ANTS/DPX leakage assay[24],[27],[30]. As described in the Methods section, leakage from POPC/POPG (3:1) vesicles was measured for 10 minutes after the addition of vesicles to a peptide solution. Leakage is expressed as percentage of the full leakage, which was obtained after addition of detergent. A synergy factor was defined to describe the enhancement of leakage of the mixture compared to the sum of the extent of leakage for each component. […] In general a synergy factor above 2 indicated synergy. […] In the leakage assay, this pore formation can be studied under more controlled conditions. Here we use two lipid compositions for the vesicles, which are mimicking bacterial membranes.
# as §1, §2
# as §3, with “SF=L(A+B)/[L(A)+L(B)]” for “SF=L(A+B)/[L(A)+L(B)] Here, L(A) is the leakage found with peptide A alone, L(B) is the leakage found with peptide B alone, and L(A + B) is the leakage found with the mixture of peptides A and B. In all cases the P/L was the same for both peptides, alone and in the mixture, so that in the mixture the total P/L was twice that of the individual peptide measurements.”
# [3] = Table S4 series (charge mutants)
# [4] = Table S3 series (charge mutants)
# [5] = Table S8 series (PGLa-to-MSI mutants)
# [6] = Table S7 series (PGLa-to-MSI mutants)
# [7] = Table S12 series (MSI-to-PGLa mutants)
# [8] = Table S11 series (MSI-to-PGLa mutants)
substance,measurement,setting,value
"GIGKFLHSAKKFGKAFVGQIMNS-OH [MAG2-E19Q, MAG2 charge mutant E19Q]","Leakage, mean value",[1]; [3],1.1%
same,"Leakage, mean value",[2]; [4],5.9%
"KIAGKIAKIAGKIAKIAGKIA-NH2 [MSI-103, designer-made AMP ([KIAGKIA]3-NH2) derived from PGLa, reference compound]","Leakage, mean value",[1]; [5],5.6%
same,"Leakage, mean value",[2]; [6],2.0%
"KIAGKIAKIAGKIAKVALKAL-NH2 [PtM-a1, PGLa to MSI-103 mutant, segment A replaced]","Leakage, mean value",[1]; [5],18.6%
same,"Leakage, mean value",[2]; [6],4.7%
"GIGKFLHSAKKFGKAFVGEIMNS-NH2 [MAG2-amide, MAG2 with amidated C-terminus]","Leakage, mean value",[1]; [3],0.8%
same,"Leakage, mean value",[2]; [4],3.7%
"KIAGKAGAIAGKIAKIAGKIA-NH2 [MtP-a3, MSI-103 triple mutant I6A, A7G, K8A]","Leakage, mean value",[1]; [7],0.9%
same,"Leakage, mean value",[2]; [8],0.9%
"GMASKAIAG A IKGAKVALKAL-NH2 [PGLa-GS2, PGLa glycine-shift mutant, GxxxG on opposite helix face]","Leakage, mean value",[1]; Table S16 series (Gly mutants),2.2%
same,"Leakage, mean value",[2]; Table S15 series (Gly mutants),2.0%
"GMASKAGAIAGKIAKVALEAL-NH2 [PGLa-K19E, PGLa charge mutant K19E]","Leakage, mean value",[1]; [3],1.7%
same,Leakage synergy in combination with MAG2-E19K,[2],did not show synergy
same,Leakage synergy in combination with MAG2-E19K-amide,[2],did not show synergy
same,"Leakage, mean value",[2]; [4],3.0%
"GMASKAGAIA IKIAKVALKAL-NH2 [PGLa-G11I, PGLa glycine mutant G11I]","Leakage, mean value",[1]; Table S16 series (Gly mutants),11.4%
same,"Leakage, mean value",[2]; Table S15 series (Gly mutants),11.0%
"GMASKIAKIAGKIAKVALKAL-NH2 [PtM-a3, PGLa to MSI-103 mutant, three amino acids converted]","Leakage, mean value",[1]; [5],9.1%
same,"Leakage, mean value",[2]; [6],3.3%
"GIGKFLHSAKKFGKAFVGEIMNS-OH [MAG2-WT, magainin 2, wild type antimicrobial peptide from Xenopus laevis skin, reference compound]","Leakage, mean value",[1]; [3],1.1%
same,"Leakage, mean value",[1]; [5],1.2%
same,"Leakage, mean value",[1]; [7],1.0%
same,"Leakage, mean value",[1]; Table S16 series (Gly mutants),1.1%
same,"Leakage, mean value",[2]; [4],3.1%
same,"Leakage, mean value",[2]; [6],3.2%
same,"Leakage, mean value",[2]; [8],3.2%
same,"Leakage, mean value",[2]; Table S15 series (Gly mutants),3.2%
"GMASKAAAIAGKIGKVALKAL-NH2 (also: 15N-labeled Ala10) [PGLa-GS1, PGLa glycine-shift mutant with GxxG motif]","Leakage, mean value",[1]; Table S16 series (Gly mutants),2.7%
same,"Leakage, mean value",[2]; Table S15 series (Gly mutants),1.9%
"GMASKAGAIAGKIAKVALKAL-NH2 [PGLa-WT, PGLa wild type antimicrobial peptide from Xenopus laevis skin, 15N-labeled at Ala10, reference compound]","Leakage, mean value",[1]; [3],2.2%
same,"Leakage, mean value",[1]; [5],2.2%
same,"Leakage, mean value",[1]; [7],2.1%
same,"Leakage, mean value",[1]; Table S16 series (Gly mutants),2.3%
same,"Leakage, mean value",[2]; [4],2.3%
same,"Leakage, mean value",[2]; [6],2.7%
same,"Leakage, mean value",[2]; [8],2.3%
same,"Leakage, mean value",[2]; Table S15 series (Gly mutants),2.2%
"KIAGKIGAIAGKIAKIAGKIA-NH2 (also: 15N-labeled Ala10) [MtP-K8A-A7G, MSI-103 double mutant K8A, A7G]","Leakage, mean value",[2]; [8],1.3%
"KIAGKAAKIAGKIAKIAGKIA-NH2 [MtP-I6A, MSI-103 to PGLa single mutant I6A]","Leakage, mean value",[1]; [7],4.8%
same,"Leakage, mean value",[2]; [8],1.6%
"KIAGKIGKIAGKIAKIALKIA-NH2 (also: 15N-labeled Ala10) [MtP-A7G-G18L, MSI-103 double mutant A7G, G18L]","Leakage, mean value",[2]; [8],4.9%
"KIASKIGKIAGKIAKIAGKIA-NH2 (also: 15N-labeled Ala10) [MtP-G4S-A7G, MSI-103 double mutant G4S, A7G]","Leakage, mean value",[2]; [8],1.4%
"KIAGKAGAIAGKIAKIALKIA-NH2 (also: 15N-labeled Ala10) [MtP-a4, MSI-103 mutant with MtP-A3 mutations plus G18L]","Leakage, mean value",[1]; [7],2.6%
same,"Leakage, mean value",[2]; [8],2.5%
"KIAGKAGKIAGKIAKIAGKIA-NH2 (also: 15N-labeled Ala10) [MtP-I6A-A7G, MSI-103 double mutant I6A, A7G]","Leakage, mean value",[2]; [8],0.8%
"GMASKAAAIAGKIAKVALKAL-NH2 (also: 15N-labeled Ala10) [PtM-G7A, PGLa single mutant G7A]","Leakage, mean value",[1]; [5],3.7%
same,"Leakage, mean value",[2]; [6],2.1%
"GMASKAGAIAGKIAEVALKAL-NH2 [PGLa-K15E, PGLa charge mutant K15E]","Leakage, mean value",[1]; [3],2.5%
same,Leakage synergy in combination with MAG2-E19K,[2],did not show synergy
same,Leakage synergy in combination with MAG2-E19K-amide,[2],did not show synergy
same,"Leakage, mean value",[2]; [4],2.9%
"KIAGKIAAIAGKIAKIAGKIA-NH2 [MtP-K8A, MSI-103 to PGLa single mutant K8A]","Leakage, mean value",[1]; [7],1.8%
same,"Leakage, mean value",[2]; [8],1.7%
"GMASEAGAIAGKIAKVALKAL-NH2 [PGLa-K5E, PGLa charge mutant K5E]","Leakage, mean value",[1]; [3],2.2%
same,"Leakage, mean value",[2]; [4],3.5%
"GMASKAGAIAGEIAKVALKAL-NH2 [PGLa-K12E, PGLa charge mutant K12E]","Leakage, mean value",[1]; [3],2.3%
same,"Leakage, mean value",[2]; [4],3.1%
